Data on 21 compounds can be found in US20240246946A1, “MODULATORS OF TREX1” (Constellation Pharmaceuticals, Inc., priority 2021, published 2024).

A value given as a limit tells only on which side of the number the result lay.

One experiment addresses T1, full length human TREX1 (Homo sapiens, UniProt Q9NSU2).
T1 construct: N-terminally His-Tev tagged full length human TREX1; made in house; host or cells: E. coli
T1 sequence (Q9NSU2 1-314): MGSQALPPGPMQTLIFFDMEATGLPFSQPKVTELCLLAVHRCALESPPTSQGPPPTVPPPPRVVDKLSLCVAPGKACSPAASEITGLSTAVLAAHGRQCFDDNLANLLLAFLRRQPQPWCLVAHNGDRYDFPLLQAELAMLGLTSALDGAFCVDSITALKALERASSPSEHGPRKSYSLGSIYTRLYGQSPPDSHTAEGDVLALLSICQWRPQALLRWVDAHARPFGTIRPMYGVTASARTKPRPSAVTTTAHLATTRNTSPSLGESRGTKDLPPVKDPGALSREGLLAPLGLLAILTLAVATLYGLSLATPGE
The experiment is described as follows: hTREX1 Biochemical Assay (fluorescence, dsDNA substrate degradation). As to conditions: biochemical, read-out: hTREX1 IC50. In outline: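 Cleavage of 60 nM TEX615/quencher-labelled dsDNA in pH 7.4 Tris buffer with 5 mM MgCl2, 1.0% DMSO, run 18 hours at 25° C, EDTA-quenched; fluorescence read-out.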

A further experiment deals with T2, full length mouse TREX1 (Mus musculus, UniProt Q91XB0).
T2 construct: N-terminally His-Tev tagged full length mouse TREX1; made in house; host or cells: E. coli
T2 sequence (Q91XB0 1-314): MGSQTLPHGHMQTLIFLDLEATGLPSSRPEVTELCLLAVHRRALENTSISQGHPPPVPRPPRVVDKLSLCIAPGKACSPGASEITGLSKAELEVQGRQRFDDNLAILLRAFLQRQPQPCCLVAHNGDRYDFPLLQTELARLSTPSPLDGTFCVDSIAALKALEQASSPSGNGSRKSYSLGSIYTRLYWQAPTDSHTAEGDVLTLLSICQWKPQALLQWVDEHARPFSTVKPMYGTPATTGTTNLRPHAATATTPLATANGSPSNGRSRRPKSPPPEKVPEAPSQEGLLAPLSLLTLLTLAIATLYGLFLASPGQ
The experiment is described as follows: mTREX1 Biochemical Assay (fluorescence, dsDNA substrate degradation). The following applies: biochemical, read-out: mTREX1 IC50. An outline of the steps:
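Reaction run 18 h at 25° C. with 60 nM TEX615/quencher-labelled dsDNA and 6 pM mouse TREX1 in Tris buffer (pH 7.4, 5 mM MgCl2, 1.0% DMSO), enzyme having sat 4 h with compound across 10 concentrations. EDTA quench; substrate degradation measured as fluorescence increase.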

For experiment [1], the target named is T3, human TREX2 (residues M44-A279) (Homo sapiens, UniProt Q9BQ50).
T3 construct: human TREX2 (residues M44-A279, expressed in E. coli); made in house; host or cells: E. coli
T3 sequence (Q9BQ50 44-279 isoform Q9BQ50-1): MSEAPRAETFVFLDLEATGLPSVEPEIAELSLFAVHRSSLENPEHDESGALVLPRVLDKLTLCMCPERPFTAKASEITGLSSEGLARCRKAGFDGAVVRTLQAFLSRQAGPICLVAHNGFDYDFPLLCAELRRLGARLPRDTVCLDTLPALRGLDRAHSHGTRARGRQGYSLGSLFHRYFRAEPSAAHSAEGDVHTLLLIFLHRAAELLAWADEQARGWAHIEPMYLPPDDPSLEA
The experiment is described as follows: hTREX2 Biochemical Assay (fluorescence, dsDNA substrate degradation). As to conditions: biochemical selectivity for hTREX1 vs hTREX2. In outline: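 N-His-Tev E. coli enzyme (50 pM) pre-incubated with compound 4 h at 25 °C, then 60 nM TEX615/quencher dsDNA added; 18 h at 25 °C, pH 7.4 Tris buffer with 5 mM MgCl2, 1.0% DMSO. EDTA-quenched; fluorescence 570 ex/615 em from liberated fluorophore, 10-point dose-response.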

The target of the next experiment is T4, hTREX1 (Homo sapiens, UniProt Q9NSU2).
T4 construct: host or cells: HCT116 dual cells
T4 sequence (Q9NSU2 1-314): T1 sequence (Q9NSU2 1-314)
As to the kind of experiment: hTREX1 HCT116 Cell Assay (HCT116 dual cells, Lucia luciferase reporter of Type I interferon induction). Type of experiment: cell-based. As to conditions: TREX1i 4 h before pBR322/BstNI transfection, read after 48 h. From the text: HCT116 dual cells (Invivogen, San Diego, CA, USA) are derived from the human HCT116 colorectal carcinoma cell line. Cells have been selected for the stable integration of SEAP and Luciferase reporter genes, which expression is under the control of 5 tandem response elements for NF-KB/AP1 and STAT1/STAT2, respectively. The cell line was used to monitor Type I interferon induction and subsequent signaling by measuring the activity of the Lucia luciferase secreted in the culture medium.
HCT116 cells were plated in 96-well plate(s) at 40,000 cells/well in 100 uL DMEM supplemented with 10% FBS and 25 mM Hepes (pH 7.2-7.5). After overnight settling, cells were treated with TREX1i for 4 h (maximum DMSO fraction was 0.1%) before 1 ug/mL pBR322/BstNI restriction digest (New England Biolabs, Ipswich, MA, USA) was transfected with Lipofectamine LTX (ThermoFisher, Grand Island, NY, USA), according to product manual recommendations. Briefly, Lipofectamine LTX (0.35 uL/well) was diluted in OptiMEM (5 uL/well). pBR322/BstNI (100 ng/well) was diluted in OptiMEM (5 uL/well) before Plus reagent (0.1 uL/100 ng DNA) was added. After 5 min incubation at room temperature, the DNA mixture was mixed dropwise with the diluted Lipofectamine LTX. After an additional 10 min incubation, the transfection mix (10 uL/well) was added to the cells. Cells were maintained at 37 C for 48 h before monitoring the Lucia Luciferase activity from the cell culture medium.
A general note: In a reporter assay the amount or activity of a reporter protein is the signal.

In general, IC50 refers to the point on the concentration scale where inhibition reaches its midpoint. `CC(c1nc(C(=O)Nc2cnoc2)c(O)c(=O)n1C)C(c1cnn(CCOC(F)(F)F)c1)c1cc(F)ccc1C#N` (single isomer, unassigned) [Example 101 D1E2]: the figures for the IC50 at full length human TREX1, on full length mouse TREX1 and on hTREX1 were under 1 nM, 1 to 10 nM and 10 to 100 nM, respectively. For the same compound, in experiment [1], the “hTREX1 vs hTREX2 selectivity” value was “C (C = >50 fold selective for hTREX1)”.
Regarding `Cc1ncc(C(c2ccccc2Cl)C(C)c2nc(C(=O)Nc3cnoc3)c(O)c(=O)n2C)cn1` (single isomer, unassigned) [Example 44 D1E2], the IC50 at full length human TREX1 lay within 1 to 10 nM; on full length mouse TREX1, 1 to 10 nM; at hTREX1, 10 to 100 nM. Besides, the “hTREX1 vs hTREX2 selectivity” value in experiment [1] is reported as “B (B = 25 to 50-fold selective for hTREX1)”.
With `CCn1cc(C(c2ccccc2Cl)C(C)c2nc(C(=O)Nc3cnoc3)c(O)c(=O)n2C)cn1` (single isomer, unassigned) [Example 85 D1E2], the values for the IC50 at full length human TREX1, on full length mouse TREX1 and against hTREX1 were 1 to 10 nM, over 10 nM and over 100 nM, respectively. In experiment [1], the “hTREX1 vs hTREX2 selectivity” value is recorded as “A (A = <25 fold selective for hTREX1)”.
`COCCn1cc(C(c2ccccc2C#N)C(C)c2nc(C(=O)Nc3cnoc3)c(O)c(=O)n2C)c(C)n1` (single isomer, unassigned) [Example 71 D1E1]: the IC50 on full length human TREX1 was under 1 nM; at full length mouse TREX1 it was under 1 nM; on hTREX1, under 10 nM. Further, in experiment [1], the “hTREX1 vs hTREX2 selectivity” value is listed as “C (C = >50 fold selective for hTREX1)”.
Regarding `Cc1nn(C)cc1C(c1ccccc1C#N)C(C)c1nc(C(=O)Nc2cnoc2)c(O)c(=O)n1C` (single isomer, unassigned) [Example 3 D1E1], the results for the IC50 on full length human TREX1, at full length mouse TREX1 and against hTREX1 were under 1 nM, under 1 nM and under 10 nM, respectively. For the same compound, the “hTREX1 vs hTREX2 selectivity” value in experiment [1] is listed as “C (C = >50 fold selective for hTREX1)”.
`Cc1ncc(C(c2ccccc2C#N)C(C)c2nc(C(=O)Nc3cnoc3)c(O)c(=O)n2C)nc1C` (single isomer, unassigned) [Example 81 D2E1]: the values for the IC50 at full length human TREX1, on full length mouse TREX1 and on hTREX1 were 1 to 10 nM, over 10 nM and over 100 nM, respectively. Also, in experiment [1], the “hTREX1 vs hTREX2 selectivity” value is given as “B (B = 25 to 50-fold selective for hTREX1)”.
With `CC(c1nc(C(=O)Nc2cnoc2)c(O)c(=O)n1C)C(c1ccccc1Cl)n1nccc1C(N)=O` (single isomer, unassigned) [Example 147 D1E1], the figures for the IC50 on full length human TREX1, at full length mouse TREX1 and against hTREX1 were under 1 nM, over 10 nM and 10 to 100 nM, respectively. In experiment [1], the “hTREX1 vs hTREX2 selectivity” value is recorded as “C (C = >50 fold selective for hTREX1)”.
For `CC(c1nc(C(=O)Nc2cnoc2)c(O)c(=O)n1C)C(c1cnn(C)c1)c1ccc(O)cc1C#N` (single isomer, unassigned) [Example 80 D1E1], the values for the IC50 at full length human TREX1, on full length mouse TREX1 and on hTREX1 were under 1 nM, 1 to 10 nM and over 100 nM, respectively. In addition, in experiment [1], the “hTREX1 vs hTREX2 selectivity” value is listed as “C (C = >50 fold selective for hTREX1)”.
In the same order, the values of `CC(c1nc(C(=O)Nc2cnoc2)c(O)c(=O)n1C)C(c1ccccc1Cl)n1cccn1` (single isomer, unassigned) [Example 45 D1E1] are 1 to 10 nM, over 10 nM, over 100 nM and “B (B = 25 to 50-fold selective for hTREX1)”.
Take `CC(c1nc(C(=O)Nc2cnoc2)c(O)c(=O)n1C)C(c1cnn(CCN2CCN(C(=O)OC(C)(C)C)CC2)c1)c1ccccc1C#N` (single isomer, unassigned) [Example 21 D1E1]: the figures for the IC50 at full length human TREX1, on full length mouse TREX1 and at hTREX1 were under 1 nM, 1 to 10 nM and 10 to 100 nM, respectively. In addition, in experiment [1], the “hTREX1 vs hTREX2 selectivity” value is “C (C = >50 fold selective for hTREX1)”.
As to `Cc1ccc(C(c2ccccc2C#N)C(C)c2nc(C(=O)Nc3cnoc3)c(O)c(=O)n2C)cn1` (single isomer, unassigned) [Example 5 D2E2], the IC50 at full length human TREX1 was 1 to 10 nM; at full length mouse TREX1, over 10 nM; at hTREX1, over 100 nM.
In the same order, the values of `CC(c1nc(C(=O)Nc2cnoc2)c(O)c(=O)n1C)C(c1cnn(C)c1)c1ccncc1C#N` (single isomer, unassigned) [Example 8 D2E2] are 1 to 10 nM, over 10 nM and over 100 nM.
Regarding `CCn1ncc(C(c2ccccc2C#N)C(C)c2nc(C(=O)Nc3cnoc3)c(O)c(=O)n2C)c1C` (single isomer, unassigned) [Example 68 D1E1], the IC50 on full length human TREX1 was under 1 nM; at full length mouse TREX1 it was under 1 nM; at hTREX1, under 10 nM.
In the case of `CC(c1nc(C(=O)Nc2cnoc2)c(O)c(=O)n1C)C(c1cnn(C(F)F)c1)c1ccccc1C#N` (single isomer, unassigned) [Example 38 D2E2], the IC50 on full length human TREX1 is 1 to 10 nM; on full length mouse TREX1 it was over 10 nM; on hTREX1 it was over 100 nM.
As for `Cc1nn(C)cc1C(c1cc(F)ccc1Cl)C(C)c1nc(C(=O)Nc2cnoc2)c(O)c(=O)n1C` (single isomer, unassigned) [Example 62 D2E2], the IC50 on full length human TREX1 was under 1 nM; on full length mouse TREX1 it was 1 to 10 nM; against hTREX1, under 10 nM.
As to `CC(c1nc(C(=O)Nc2cnoc2)c(O)c(=O)n1C)C(c1cnn(C)c1)c1cc(F)c(F)cc1Cl` (single isomer, unassigned) [Example 28 D1E1], the values for the IC50 on full length human TREX1, at full length mouse TREX1 and against hTREX1 were under 1 nM, 1 to 10 nM and 10 to 100 nM, respectively.
For the compound `CC(c1nc(C(=O)Nc2cnoc2)c(O)c(=O)n1C)C(c1ccccc1C#N)c1cn(C)nc1C#N` (single isomer, unassigned) [Example 10 D1E2], the IC50 at full length human TREX1 is 1 to 10 nM; at full length mouse TREX1, over 10 nM; against hTREX1 it was 10 to 100 nM.
As to `CC(c1nc(C(=O)Nc2cnoc2)c(O)c(=O)n1C)C(c1cocn1)c1ccccc1C#N` (single isomer, unassigned) [Example 50 D1E1], the results for the IC50 at full length human TREX1, at full length mouse TREX1 and against hTREX1 were 1 to 10 nM, over 10 nM and over 100 nM, respectively.
As for `CC(c1nc(C(=O)Nc2cnoc2)c(O)c(=O)n1C)C(c1cnn(C)c1)c1cc(F)ccc1Cl` (single isomer, unassigned) [Example 61 D1E1], the IC50 was under 1 nM at full length human TREX1, 1 to 10 nM at full length mouse TREX1 and under 10 nM on hTREX1.
In the same order, the values of `Cc1c(C(c2ccccc2C#N)C(C)c2nc(C(=O)Nc3cnoc3)c(O)c(=O)n2C)cnn1C` (single isomer, unassigned) [Example 4 D1E1] are under 1 nM, 1 to 10 nM and 10 to 100 nM.
In the same order, the values of `CC(c1nc(C(=O)Nc2cnoc2)c(O)c(=O)n1C)C(c1cnn(C)c1)c1cccnc1C#N` (single isomer, unassigned) [Example 7 D1E1] are 1 to 10 nM, over 10 nM and over 100 nM.
